These compounds were tested on RSV A2 virus (assay: RSV CPE assay). Conditions: human respiratory syncytial virus, HEp-2, 120 h, read-out: RSV A2 (Hep-2 cell) EC50.

Compound	EC50 [nM]
CCC(CC)COC(=O)[C@H](Cc1ccccc1)N[P@](=O)(OC[C@H]1O[C@@](C#N)(c2ccc3c(N)ncnn23)[C@H](OC(=O)C(C)C)[C@@H]1OC(=O)C(C)C)Oc1ccccc1 [Compound 41b, (2R,3R,4R,5R)-2-(4-aminopyrrolo[2,1-f][1,2,4]triazin-7-yl)-2-cyano-5-((((S)-(((S)-1-(2-ethylbutoxy)-1-oxo-3-phenylpropan-2-yl)amino)(phenoxy)phosphoryl)oxy)methyl)tetrahydrofuran-3,4-diyl bis(2-methylpropionate)]	< 100
CC(C)C(=O)O[C@H]1[C@@H](OC(=O)C(C)C)[C@](C#N)(c2ccc3c(N)ncnn23)O[C@@H]1CO[P@](=O)(N[C@@H](CC(=O)OC1CCC1)C(=O)OC1CCC1)Oc1ccccc1 [Compound 54a, (2R,3R,4R,5R)-2-(4-aminopyrrolo[2,1-f][1,2,4]triazin-7-yl)-2-cyano-5-((((R)-(((S)-1,4-dicyclobutoxy-1,4-dioxobutan-2-yl)amino)(phenoxy)phosphoryl)oxy)methyl)tetrahydrofuran-3,4-diyl bis(2-methylpropionate)]	100 to 200
CC(C)C(=O)O[C@H]1[C@@H](OC(=O)C(C)C)[C@](C#N)(c2ccc3c(N)ncnn23)O[C@@H]1CO[P@@](=O)(N[C@@H](CC(=O)OC1CCC1)C(=O)OC1CCC1)Oc1ccccc1 [Compound 54b, (2R,3R,4R,5R)-2-(4-aminopyrrolo[2,1-f][1,2,4]triazin-7-yl)-2-cyano-5-((((S)-(((S)-1,4-dicyclobutoxy-1,4-dioxobutan-2-yl)amino)(phenoxy)phosphoryl)oxy)methyl)tetrahydrofuran-3,4-diyl bis(2-methylpropionate)]	< 100
CC(C)(C)C(=O)O[C@H]1[C@@H](OC(=O)C(C)(C)C)[C@](C#N)(c2ccc3c(N)ncnn23)O[C@@H]1CO[P@](=O)(N[C@@H](CC(=O)OC1CCC1)C(=O)OC1CCC1)Oc1ccccc1 [Compound 57a, (2R,3R,4R,5R)-2-(4-aminopyrrolo[2,1-f][1,2,4]triazin-7-yl)-2-cyano-5-((((R)-(((S)-1,4-dicyclobutoxy-1,4-dioxobutan-2-yl)amino)(phenoxy)phosphoryl)oxy)methyl)tetrahydrofuran-3,4-diyl bis(2,2-dimethylpropionate)]	500 to 1000
CC(C)(C)C(=O)O[C@H]1[C@@H](OC(=O)C(C)(C)C)[C@](C#N)(c2ccc3c(N)ncnn23)O[C@@H]1CO[P@@](=O)(N[C@@H](CC(=O)OC1CCC1)C(=O)OC1CCC1)Oc1ccccc1 [Compound 57b, (2R,3R,4R,5R)-2-(4-aminopyrrolo[2,1-f][1,2,4]triazin-7-yl)-2-cyano-5-((((S)-(((S)-1,4-dicyclobutoxy-1,4-dioxobutan-2-yl)amino)(phenoxy)phosphoryl)oxy)methyl)tetrahydrofuran-3,4-diyl bis(2,2-dimethylpropionate)]	200 to 500
CC(C)(C)C(=O)O[C@H]1[C@@H](OC(=O)C(C)(C)C)[C@](C#N)(c2ccc3c(N)ncnn23)O[C@@H]1CO[P@](=O)(N[C@H](C=O)CC(=O)OC1(C2CCCC2)CCCC1)Oc1ccccc1 [Compound 61a, (2R,3R,4R,5R)-2-(4-aminopyrrolo[2,1-f][1,2,4]triazin-7-yl)-2-cyano-5-((((R)-(((S)-1,4-bicyclopentyloxy-1,4-dioxobutan-2-yl)amino)(phenoxy)phosphoryl)oxy)methyl)tetrahydrofuran-3,4-diyl bis(2,2-dimethylpropionate)]	> 1000
CC(C)(C)C(=O)O[C@H]1[C@@H](OC(=O)C(C)(C)C)[C@](C#N)(c2ccc3c(N)ncnn23)O[C@@H]1CO[P@@](=O)(N[C@H](C=O)CC(=O)OC1(C2CCCC2)CCCC1)Oc1ccccc1 [Compound 61b, (2R,3R,4R,5R)-2-(4-aminopyrrolo[2,1-f][1,2,4]triazin-7-yl)-2-cyano-5-((((S)-(((S)-1,4-bicyclopentyloxy-1,4-dioxobutan-2-yl)amino)(phenoxy)phosphoryl)oxy)methyl)tetrahydrofuran-3,4-diyl bis(2,2-dimethylpropionate)]	500 to 1000
CCC(CC)COC(=O)C[C@H](N[P@@](=O)(OC[C@H]1O[C@@](C#N)(c2ccc3c(N)ncnn23)[C@H](OC(=O)C(C)C)[C@@H]1OC(=O)C(C)C)Oc1ccccc1)C(=O)OCC(CC)CC [Compound 62a, (2R,3R,4R,5R)-2-(4-aminopyrrolo[2,1-f][1,2,4]triazin-7-yl)-2-cyano-5-((((R)-(((S)-1,4-bis(2-ethylbutoxy)-1,4-dioxobutan-2-yl)amino)(phenoxy)phosphoryl)oxy)methyl)tetrahydrofuran-3,4-diyl bis(2-methylpropionate)]	200 to 500
CCC(CC)COC(=O)C[C@H](N[P@](=O)(OC[C@H]1O[C@@](C#N)(c2ccc3c(N)ncnn23)[C@H](OC(=O)C(C)C)[C@@H]1OC(=O)C(C)C)Oc1ccccc1)C(=O)OCC(CC)CC [Compound 62b, (2R,3R,4R,5R)-2-(4-aminopyrrolo[2,1-f][1,2,4]triazin-7-yl)-2-cyano-5-((((S)-(((S)-1,4-bis(2-ethylbutoxy)-1,4-dioxobutan-2-yl)amino)(phenoxy)phosphoryl)oxy)methyl)tetrahydrofuran-3,4-diyl bis(2-methylpropionate)]	< 100
CC(C)C(=O)O[C@H]1[C@@H](OC(=O)C(C)C)[C@](C#N)(c2ccc3c(N)ncnn23)O[C@@H]1CO[P@@](=O)(N[C@@H](Cc1ccccc1)C(=O)OC1CCC1)Oc1ccccc1 [Compound 63b, (2R,3R,4R,5R)-2-(4-aminopyrrolo[2,1-f][1,2,4]triazin-7-yl)-2-cyano-5-((((S)-(((S)-1-cyclobutoxy-1-oxo-3-phenylpropan-2-yl)amino)(phenoxy)phosphoryl)oxy)methyl)tetrahydrofuran-3,4-diyl bis(2-methylpropionate)]	< 100
COC(C)(C)COC(=O)[C@H](Cc1ccccc1)N[P@@](=O)(OC[C@H]1O[C@@](C#N)(c2ccc3c(N)ncnn23)[C@H](OC(=O)C(C)C)[C@@H]1OC(=O)C(C)C)Oc1ccccc1 [Compound 64a, (2R,3R,4R,5R)-2-(4-aminopyrrolo[2,1-f][1,2,4]triazin-7-yl)-2-cyano-5-((((R)-(((S)-1-(2-methoxy-2-methylpropoxy)-1-oxo-3-phenylpropan-2-yl)amino)(phenoxy)phosphoryl)oxy)methyl)tetrahydrofuran-3,4-diyl bis(2-methylpropionate)]	100 to 200
COC(C)(C)COC(=O)[C@H](Cc1ccccc1)N[P@](=O)(OC[C@H]1O[C@@](C#N)(c2ccc3c(N)ncnn23)[C@H](OC(=O)C(C)C)[C@@H]1OC(=O)C(C)C)Oc1ccccc1 [Compound 64b, (2R,3R,4R,5R)-2-(4-aminopyrrolo[2,1-f][1,2,4]triazin-7-yl)-2-cyano-5-((((S)-(((S)-1-(2-methoxy-2-methylpropoxy)-1-oxo-3-phenylpropan-2-yl)amino)(phenoxy)phosphoryl)oxy)methyl)tetrahydrofuran-3,4-diyl bis(2-methylpropionate)]	< 100

Same assay, conditions: read-out: RSV A2 (Hep-2 cell) EC50; HEp-2 cells, RSV A2 virus, 5 days, CCK8

Compound	EC50 [nM]
CCC(CC)COC(=O)[C@H](Cc1ccccc1)N[P@@](=O)(OC[C@H]1O[C@@](C#N)(c2ccc3c(N)ncnn23)[C@H](OC(=O)C(C)C)[C@@H]1OC(=O)C(C)C)Oc1ccc(C(C)(C)C)cc1 [Compound 53a, (2R,3R,4R,5R)-2-(4-aminopyrrolo[2,1-f][1,2,4]triazin-7-yl)-2-cyano-5-((((((S)-1-(2-ethylbutoxy)-1-oxo-3-phenylpropan-2-yl)amino)((R)-4-tert-butylphenoxy)phosphoryl)oxy)methyl)tetrahydrofuran-3,4-diyl bis(2-methylpropionate)]	< 100
CCC(CC)COC(=O)[C@H](Cc1ccccc1)N[P@](=O)(OC[C@H]1O[C@@](C#N)(c2ccc3c(N)ncnn23)[C@H](OC(=O)C(C)C)[C@@H]1OC(=O)C(C)C)Oc1ccc(C(C)(C)C)cc1 [Compound 53b, (2R,3R,4R,5R)-2-(4-aminopyrrolo[2,1-f][1,2,4]triazin-7-yl)-2-cyano-5-((((((S)-1-(2-ethylbutoxy)-1-oxo-3-phenylpropan-2-yl)amino)((S)-4-tert-butylphenoxy)phosphoryl)oxy)methyl)tetrahydrofuran-3,4-diyl bis(2-methylpropionate)]	< 100
CC(C)C(=O)O[C@H]1[C@@H](OC(=O)C(C)C)[C@](C#N)(c2ccc3c(N)ncnn23)O[C@@H]1CO[P@](=O)(N[C@@H](Cc1ccccc1)C(=O)OC1CCC1)Oc1ccccc1 [Compound 63a]	200 to 500
(2R,3R,4R,5R)-2-(4-aminopyrrolo[2,1-f][1,2,4]triazin-7-yl)-2-cyano-5-((((R)-(((S)-1,4-bicyclopentyloxy-1,4-dioxobutan-2-yl)amino)(phenoxy)phosphoryl)oxy)methyl)tetrahydrofuran-3,4-diyl diacetate [Compound 58a]	200 to 500
(2R,3R,4R,5R)-2-(4-aminopyrrolo[2,1-f][1,2,4]triazin-7-yl)-2-cyano-5-((((R)-(((S)-1,4-bicyclopentyloxy-1,4-dioxobutan-2-yl)amino)(phenoxy)phosphoryl)oxy)methyl)tetrahydrofuran-3,4-diyl dipropionate [Compound 59a]	200 to 500
(2R,3R,4R,5R)-2-(4-aminopyrrolo[2,1-f][1,2,4]triazin-7-yl)-2-cyano-5-((((R)-(((S)-1,4-dicyclobutoxy-1,4-dioxobutan-2-yl)amino)(phenoxy)phosphoryl)oxy)methyl)tetrahydrofuran-3,4-diyl diacetate [Compound 55a]	100 to 200
(2R,3R,4R,5R)-2-(4-aminopyrrolo[2,1-f][1,2,4]triazin-7-yl)-2-cyano-5-((((R)-(((S)-1,4-dicyclobutoxy-1,4-dioxobutan-2-yl)amino)(phenoxy)phosphoryl)oxy)methyl)tetrahydrofuran-3,4-diyl dipropionate [Compound 56a]	200 to 500
(2R,3R,4R,5R)-2-(4-aminopyrrolo[2,1-f][1,2,4]triazin-7-yl)-2-cyano-5-((((R)-(((S)-1-(2-ethylbutoxy)-1-oxopropan-2-yl)amino)(((isopropoxycarbonyl)oxy)methoxy)phosphoryl)oxy)methyl)tetrahydrofuran-3,4-diyl diacetate [Compound 5a]	200 to 500
